{"source": "patent US12391683B2", "about": "“Therapeutic compounds and methods” (Actio Biosciences, Inc., priority 2022, dated 2025)", "key": {"[1]": {"target": "T1, TRPM5 channels (Homo sapiens, UniProt Q9NZQ8)", "T1 construct": "expressed in transfected cells; host or cells: CHO", "T1 sequence (Q9NZQ8 1-1165)": "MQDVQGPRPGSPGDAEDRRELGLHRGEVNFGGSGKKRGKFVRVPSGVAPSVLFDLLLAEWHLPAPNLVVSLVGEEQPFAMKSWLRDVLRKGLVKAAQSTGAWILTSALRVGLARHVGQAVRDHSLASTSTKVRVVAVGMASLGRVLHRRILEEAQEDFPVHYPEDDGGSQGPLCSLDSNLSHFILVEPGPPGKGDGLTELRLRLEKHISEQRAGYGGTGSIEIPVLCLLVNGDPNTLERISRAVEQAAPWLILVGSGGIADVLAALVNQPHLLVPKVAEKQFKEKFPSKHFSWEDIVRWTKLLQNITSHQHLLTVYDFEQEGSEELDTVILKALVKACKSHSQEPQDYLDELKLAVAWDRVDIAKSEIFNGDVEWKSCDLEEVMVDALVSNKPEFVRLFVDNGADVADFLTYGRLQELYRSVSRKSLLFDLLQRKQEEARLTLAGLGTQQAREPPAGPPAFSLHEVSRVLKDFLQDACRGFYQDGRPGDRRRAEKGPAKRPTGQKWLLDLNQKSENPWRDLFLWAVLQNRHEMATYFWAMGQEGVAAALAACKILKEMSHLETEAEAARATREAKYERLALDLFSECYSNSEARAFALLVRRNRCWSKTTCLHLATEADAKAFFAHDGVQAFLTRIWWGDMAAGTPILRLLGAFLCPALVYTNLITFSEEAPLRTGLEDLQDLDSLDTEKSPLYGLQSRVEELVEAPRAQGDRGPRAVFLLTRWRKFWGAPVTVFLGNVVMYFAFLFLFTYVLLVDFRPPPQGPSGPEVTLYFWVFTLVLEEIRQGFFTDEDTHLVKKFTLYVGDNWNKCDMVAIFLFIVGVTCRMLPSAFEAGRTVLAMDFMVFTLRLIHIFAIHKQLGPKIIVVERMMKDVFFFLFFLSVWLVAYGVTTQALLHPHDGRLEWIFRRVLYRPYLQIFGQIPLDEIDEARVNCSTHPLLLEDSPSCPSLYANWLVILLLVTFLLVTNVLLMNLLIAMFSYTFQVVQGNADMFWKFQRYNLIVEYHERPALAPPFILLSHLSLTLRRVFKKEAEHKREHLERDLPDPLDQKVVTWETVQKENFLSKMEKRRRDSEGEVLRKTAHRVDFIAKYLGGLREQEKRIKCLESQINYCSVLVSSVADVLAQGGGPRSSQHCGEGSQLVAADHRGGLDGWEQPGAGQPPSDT", "assay": "TRP Family FLIPR Assay, TRPM5", "format": "cell-based", "settings": "CHO cells", "description": "(§1) The compound of Example 5 was tested for selectivity against a panel of Human TRP family ion channels in a TRP Family FLIPR Assay as described below. • 1. TRPC3 channels (human TRPC3 variant 1 gene, expressed in HEK293 cells). • 2. TRPC4 channels (human TRPC4 gene, expressed in HEK293 cells). • 3. TRPC5 channels (human TRPC5 gene, expressed in HEK293 cells). • 4. TRPC6 channels (human TRPC6 gene, expressed in HEK293 cells). • 5. TRPM2 channels (human TRPM2 gene, transiently expressed in HEK293 cells). • 6. TRPM3 channels (human TRPM3 gene, transiently expressed in HEK293 cells). • 7. TRPM4 channels (human TRPM4 gene, expressed in CHO cells). • 8. […]\n(§2) Data acquisition was performed via the FLIPR Control software supplied with the FLIPR System (MDS-AT) and data was analyzed using Microsoft Excel (Microsoft Corp., Redmond, WA) or GraphPad Prism. […]\n(§3) [formula] where Base is the response at low concentrations of test article, Max is the maximum response at high concentrations, xhalf the EC50, or IC50, the concentration of test article producing either half-maximal activation or inhibition, and rate is the Hill coefficient. […] No assumptions about the fit parameters was made; the fit parameters were determined by the algorithm.\n(§4) The effect of each test article was evaluated at eight (8) concentrations: 0.003, 0.01, 0.03, 0.1, 0.3, 1, 3 and 10 μM, n≤4 wells/concentration). […]"}, "[2]": {"target": "T2, TRPV5 channels (Homo sapiens, UniProt Q9NQA5)", "T2 construct": "expressed in transfected cells; host or cells: HEK293 (transient)", "T2 sequence (Q9NQA5 whole entry)": "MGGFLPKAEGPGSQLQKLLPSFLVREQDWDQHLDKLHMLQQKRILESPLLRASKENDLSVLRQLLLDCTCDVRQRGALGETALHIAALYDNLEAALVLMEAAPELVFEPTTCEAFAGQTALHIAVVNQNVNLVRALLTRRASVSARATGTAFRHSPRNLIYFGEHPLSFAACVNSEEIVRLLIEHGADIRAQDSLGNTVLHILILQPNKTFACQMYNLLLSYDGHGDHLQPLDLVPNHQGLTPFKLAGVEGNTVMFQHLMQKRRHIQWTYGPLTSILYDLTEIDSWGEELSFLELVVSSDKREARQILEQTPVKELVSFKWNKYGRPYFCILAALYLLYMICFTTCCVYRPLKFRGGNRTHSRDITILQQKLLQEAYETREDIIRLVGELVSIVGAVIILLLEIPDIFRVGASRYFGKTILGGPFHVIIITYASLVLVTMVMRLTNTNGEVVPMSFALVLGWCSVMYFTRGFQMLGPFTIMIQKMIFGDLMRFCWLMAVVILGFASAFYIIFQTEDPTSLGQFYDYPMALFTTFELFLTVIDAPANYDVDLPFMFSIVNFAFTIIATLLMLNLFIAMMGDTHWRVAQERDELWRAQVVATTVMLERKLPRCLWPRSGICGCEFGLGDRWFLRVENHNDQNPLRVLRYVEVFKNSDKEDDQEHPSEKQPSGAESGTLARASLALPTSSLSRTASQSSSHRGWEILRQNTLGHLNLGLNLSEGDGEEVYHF", "assay": "TRP Family FLIPR Assay, TRPV5", "format": "cell-based", "settings": "antagonist mode; activated with 60 μM cadmium ion; HEK293 cells (transient); 0.003-10 μM; read-out: IC50 hTRPV5", "description": "as §1, §2, §3, §4"}, "[3]": {"system": "Hepatocytes", "assay": "Hepatocytes predicted clearance, rat"}}, "data": [{"smiles": "CC(C)(O)c1cnc(N2C[C@@]3(CC[C@@H](F)[C@](C)(Cn4cnc5ccc(C#N)cc54)C3)OC2=O)cn1", "note": "(single isomer, unassigned) [Example 5]", "values": [{"measurement": "EC50", "setting": "[1]; agonist mode, vs EMAX of Mg-ATP 33.3 μM, read-out: EC50 hTRPM5", "value": "> 10", "unit": "µM"}, {"measurement": "IC50", "setting": "[1]; antagonist mode, activated with Mg-ATP 75 μM, 0.003-10 μM, read-out: IC50 hTRPM5", "value": "> 10", "unit": "µM"}, {"measurement": "IC50", "setting": "[2]", "value": "> 10", "unit": "µM"}, {"measurement": "Hepatocytes predicted clearance in rat", "setting": "[3]", "value": 7.67, "unit": "mL/min/kg"}]}]}
